From US20050197364A1, “Amide compounds as ion channel ligands and uses thereof” (priority 2003, published 2005)

Legend:
[1] = test system: pawlick response induced by capsaicin; assay: Paw lick assay (capsaicin challenge); type: in vivo; conditions: 30 mg/kg, at least 30 minutes prior to testing; FIG. 5
Method: This assay was performed to test the ability of Compound 18 to inhibit the response to capsaicin challenge.
Animals were acclimatized at least 2 days prior to testing by placing them in a behavioral chamber for one hour. On the day of testing, animals were trained for 30-60 minutes prior to dosing. Animals were dosed with 30 mg/kg of Compound 18 at least 30 minutes prior to testing and then placed in behavioral chambers for acclimatization. Animals were then placed into a falcon tube restrainer and injected with a 0.16 mg/ml capsaicin solution (or vehicle) into the plantar surface of their paw. Animals were then returned to the behavior chamber and monitored for paw licking behavior (including paw and leg licking behavior) over the next 5 minute interval.

thermal hyperalgesia = assay: Thermal hyperalgesia (carrageenan, latency of paw withdrawal); type: in vivo, rat; conditions: rats, 30 mg/kg, two hours after dosing, FIG. 6
Method: Sprague-Dawley male rats obtained from Charles River, San Diego, Calif. were purchased at 150-175 g, and held for at least one week before testing. Pain was induced by injecting 100 μl of 2% carrageenan in 0.9% saline sub-Q into the right ventral hindpaw while the animals were under isofluorane anesthesia. Animals were then dosed one hour after with different concentrations of Compound 18 (3, 10, and 30 mg/kg). Two hours later, after acclimatizing in testing chambers for 20-30 minutes, animals were tested on both hindpaws for latency of paw withdrawal using a thermal testing apparatus. 2-3 trials were conducted with 10 minutes between trials. […] The figure depicts the time in seconds until animals withdraw from thermal stimulation at baseline and two hours after administration of delivery vehicle, control compound, and three concentrations of Compound 18.

[2] = Partition coefficient Log(D), 1-octanol / pH 7.4 buffer; type: physicochemical; conditions: pH 7.4, 1-octanol/buffer
Method: The partition coefficient, Log(D), between water-saturated 1octanol and pH 7.4 buffer was determined for Compound 18. The pH 7.4 buffer was prepared by adjusting the pH of a 0.07 M solution of NaH2PO4 to pH 7.4 with 10 N NaOH. 15 μL of a 10 mM stock solution of test article were pipetted in duplicate, into test tubes containing 750 μL each of 1-octanol and pH 7.4 buffer. Then 3 μL of 50 mM testosterone was also added to each tube. Then the tubes were rotated for about one hour using a benchtop rotator. Following the rotation, the tubes sat on the bench top for about 1 hour to allow the layers to separate.
Thereafter, 400 μL of the octanol (top) layer was removed and placed into a test tube. Next 400 μL of the aqueous (bottom) layer was removed and placed into a test tube. […]
A standard curve of test article and testosterone was prepared using 50% methanol at the following concentrations: 2, 0.6, 0.2, 0.06, 0.02, 0.006, and 0.002 μM. The samples were analyzed by LC/MS monitoring both test article and testosterone. Log (D) was calculated for each duplicate sample by taking the calculated concentration of the least diluted sample for each phase that fell within the standard curve using the following equation: Log(D)=Log10(Calc. Conc. in Organic Phase/Calc. Conc. in Aqueous Phase).

[3] = Aqueous equilibrium solubility; type: physicochemical; conditions: room temperature
Method: Equilibrium solubility was measured in a pH 2.0 isotonic solution of NaCl/HCl and a pH 7.4 aqueous buffer. The pH 2.0 solution was prepared by adjusting the saline solution to a pH of 2.0 using HCl. The pH 7.4 buffer was prepared by adjusting the pH of a 0.07 M solution of NaH2PO4 to pH 7.4 with 10 N NaOH. […] At least 1 mg of powder was combined with 1 ml of buffer to make ≧1 mg/ml mixture. This sample was shaken for ≧2 hours and left to stand overnight at room temperature. The samples were then filtered through a 0.45-μm Nylon syringe filter that was first saturated with the sample. The filtrate was sampled twice, consecutively. All samples were assayed by LC/MS using electrospray ionization. The typical range of the assay is greater than 1 mg/mL to less than 0.0002 mg/mL, depending on analytical sensitivity.

VR1 receptor [4] = assay: High throughput calcium imaging assay (Fura2, Flex Station) of VR1 antagonists, pH 5.1 stimulus; type: cell-based; conditions: 1 uM compound; inhibition of calcium ion influx induced by capsaicin stimulation
Method: Therefore the functional activity of compounds at the VR1 receptor may be determined by measuring changes in intracellular calcium levels in 293 cells expressing capsaicin-insensitive VR1 receptor variants. A dual wavelength ratiometric dye, Fura2, was used as an indicator of relative levels of calcium ions in a 96 well format using a bench top scanning fluorometer with integrated fluidics and temperature control (Flex Station, Molecular Devices).
293 cells were grown on PDL coated 96-well black-walled plates, in the presence of a DMEM medium containing 5% Penstrep, 5% Glutamax, 200 ug/mL Hygromycin, 5 μg/mL Blasticide and 10% heat inactivated FBS. Prior to assay, the cells were loaded with 5 μg/mL Fura2 in normal saline solution at 37° C. for 40 minutes. Cells were then washed with normal saline to remove the dye.
The assay consists of two stages; a pre-treatment phase followed by a treatment phase.
50 μl of a compound solution was added to the cells (Pre-treatment). Immediately following, 50 μl of the test compound in a saline solution at pH 5.1 was added. Fura2 was excited at 340 and 380 nM to indicate relative calcium concentration. Changes in wavelength measurements were made throughout the course of the experiment in 4 second intervals over a period of 3 minutes. Responses were measured as peak fluorescence ratio after test compound addition minus baseline fluorescence ratio prior to pre-treatment and were calculated using SoftMaxPro softwareData were expressed as percentage inhibition calculated using Excel as follows: [formula]

2C9 = 2C9 (Homo sapiens, UniProt P11712); assay: Cytochrome p450 inhibition assessment, 2C9; type: in vitro ADME; conditions: concentration range tested, upper 100 μM
2C9, sequence (P11712 whole entry): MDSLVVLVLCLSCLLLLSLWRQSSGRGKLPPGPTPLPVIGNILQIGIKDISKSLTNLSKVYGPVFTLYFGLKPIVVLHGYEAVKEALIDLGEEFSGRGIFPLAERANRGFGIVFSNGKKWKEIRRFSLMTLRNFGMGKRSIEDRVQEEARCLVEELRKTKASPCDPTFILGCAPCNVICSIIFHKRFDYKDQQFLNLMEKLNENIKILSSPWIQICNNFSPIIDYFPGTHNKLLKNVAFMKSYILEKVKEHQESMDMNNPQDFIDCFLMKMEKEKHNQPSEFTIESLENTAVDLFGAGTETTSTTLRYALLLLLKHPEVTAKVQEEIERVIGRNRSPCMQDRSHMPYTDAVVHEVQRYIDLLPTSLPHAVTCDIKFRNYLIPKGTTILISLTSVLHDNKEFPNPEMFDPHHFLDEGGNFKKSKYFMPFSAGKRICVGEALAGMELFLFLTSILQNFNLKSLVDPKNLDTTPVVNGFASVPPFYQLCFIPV
Method: (§1) The ability of test compounds to inhibit five major human cytochrome p450 isozymes was evaluated. Cytochrome p450 inhibition assays were performed on 96-well microtiter assay plates according to the protocols described in Gentest P450 inhibition instruction manuals. The assays were performed in duplicate at 8 concentrations with the upper concentration of 100 μM followed by a 1:3 serial dilution. Reactions were initiated by the addition of 100 μL of enzyme/substrate mix to 100 μL of cofactor/serial dilution mix, and terminated by addition of 75 μL of a 4:1 acentonitrile: 0.5 M Tris base solution or by 2N NaOH for CYP3A4/DBF. Fluorescence was measured using a fluorescence plate reader (FLUOstar model 403, BMG Lab Technologies, Durham, N.C.). For reactions with inhibition greater than 50%, IC50 values were determined by fitting the data to the Hill equation using software GraphPad Prism (Version 4.02, GraphPad Software, San Diego, Calif.).

CYP2D6 = CYP2D6 (Homo sapiens, UniProt P10635); assay: Cytochrome p450 inhibition assessment, CYP2D6; type: in vitro ADME; conditions: concentration range tested, upper 100 μM
CYP2D6, sequence (P10635 whole entry): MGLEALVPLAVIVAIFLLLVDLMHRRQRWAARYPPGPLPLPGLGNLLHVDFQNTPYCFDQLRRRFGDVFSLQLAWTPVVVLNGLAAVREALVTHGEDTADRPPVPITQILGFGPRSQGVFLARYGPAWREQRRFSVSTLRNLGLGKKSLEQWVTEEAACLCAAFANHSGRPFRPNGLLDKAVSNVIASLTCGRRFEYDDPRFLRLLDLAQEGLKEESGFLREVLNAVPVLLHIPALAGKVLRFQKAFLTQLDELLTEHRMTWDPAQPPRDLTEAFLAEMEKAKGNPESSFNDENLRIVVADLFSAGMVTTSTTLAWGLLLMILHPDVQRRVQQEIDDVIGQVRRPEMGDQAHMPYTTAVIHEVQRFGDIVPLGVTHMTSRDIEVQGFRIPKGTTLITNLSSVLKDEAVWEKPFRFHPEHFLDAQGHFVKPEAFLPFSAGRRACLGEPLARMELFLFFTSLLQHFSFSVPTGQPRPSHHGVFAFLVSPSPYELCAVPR
Method: as §1

VR1 receptor [5] = target: T1, VR1 receptor (Rattus norvegicus, UniProt O35433); assay: Whole-cell patch clamp electrophysiology, capsaicin induced current in DRG neurons; type: cell-based
T1 construct: Dorsal root ganglion (DRG) neurons were recovered from either neonatal or adult rats; endogenous in cells; host or cells: primary rat dorsal root ganglion neurons
T1 sequence (O35433 whole entry): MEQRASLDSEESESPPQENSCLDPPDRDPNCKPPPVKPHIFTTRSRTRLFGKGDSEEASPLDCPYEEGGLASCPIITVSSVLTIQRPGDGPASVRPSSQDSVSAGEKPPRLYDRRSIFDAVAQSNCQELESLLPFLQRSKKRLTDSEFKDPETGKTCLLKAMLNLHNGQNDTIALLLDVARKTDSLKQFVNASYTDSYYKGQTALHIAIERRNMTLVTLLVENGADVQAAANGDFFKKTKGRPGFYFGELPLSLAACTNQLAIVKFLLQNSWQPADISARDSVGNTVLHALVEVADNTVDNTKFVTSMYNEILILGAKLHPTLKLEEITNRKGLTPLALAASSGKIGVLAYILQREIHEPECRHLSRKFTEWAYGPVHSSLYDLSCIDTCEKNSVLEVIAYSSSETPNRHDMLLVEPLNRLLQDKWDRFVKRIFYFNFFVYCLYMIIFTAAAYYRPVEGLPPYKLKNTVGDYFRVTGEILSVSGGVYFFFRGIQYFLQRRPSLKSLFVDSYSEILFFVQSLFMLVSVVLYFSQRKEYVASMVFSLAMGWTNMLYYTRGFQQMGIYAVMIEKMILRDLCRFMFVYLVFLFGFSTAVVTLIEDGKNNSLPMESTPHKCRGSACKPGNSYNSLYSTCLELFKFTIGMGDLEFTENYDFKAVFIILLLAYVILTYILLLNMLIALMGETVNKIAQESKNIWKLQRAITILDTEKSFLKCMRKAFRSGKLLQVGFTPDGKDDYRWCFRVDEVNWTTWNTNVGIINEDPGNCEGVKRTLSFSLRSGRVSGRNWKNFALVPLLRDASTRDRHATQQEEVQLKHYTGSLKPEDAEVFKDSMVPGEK
Method: Dorsal root ganglion (DRG) neurons were recovered from either neonatal or adult rats and plated onto poly-D-lysine coated glass coverslips. The plated neurons were transferred into a chamber to allow drug solutions to be added to the cells using a computer-controlled solenoid-valve based perfusion system. The cells were imaged using standard DIC optics. Cells were patched using finely-pulled glass electrodes. Voltage-clamp electrophysiology experiments were carried out using an Axon Instruments Multiclamp amplified controlled by pCLAMP8 software.
The cells were placed into a whole-cell voltage clamp and help at a voltage of −80 mV while monitoring the membrane current in gap-free recording mode. 500 nM capsaicin was added for 30 seconds as a control. Test compounds at various concentrations at ranging from (10-1000 nM) were added to the cells for 1 minute prior to a 30 second capsaicin application. Differences between control experiments and drug positive capsaicin experiments were used to determine the efficacy of each test compound. All compounds that inhibited capsaicin induced current greater than 50% were considered positives.

Log (D) [2]: less than 4.7 | solubility thermodynamic ([3]; pH 2.0 isotonic NaCl/HCl solution, simulated gastric fluid, thermodynamic from solid, pH 2.0 isotonic NaCl/HCl): < 0.2 µg/mL | equilibrium solubility ([3]; pH 7.4 aqueous buffer): low solubility | inhibition of 2C9 activity (2C9): did not significantly inhibit | inhibition of CYP2D6 activity (CYP2D6): did not significantly inhibit | dose response of inhibiting a capsaicin induced calcium ion influx (FIG. 3) (VR1 receptor [5]; 50 nM, 100 nM and 250 nM): increasing effectiveness | inhibition at 0.1 µM (VR1 receptor [5]; DRG neuron, 100 nM compound, treatment time 20 seconds, 500 nM capsaicin, rat DRG neurons, -80 mV): < 75%
Structure (SMILES): O=C(Nc1ccc(C(F)(F)F)cc1)c1ccc(-c2ncccc2Cl)cc1 [Compound 18, 4-(3-Chloropyridin-2-yl)-N-(4-trifluoromethyl-phenyl)benzamide]
pawlick response induced by treatment with capsaicin [1]: significantly inhibited | latency of paw withdrawal (reversal of thermal hyperalgesia) (thermal hyperalgesia): significantly increased | % Inhibition @ 1 uM (VR1 receptor [4]): + + + + (compound exhibited 75% or greater inhibition of calcium ion influx induced by capsaicin stimulation)
